Assay results reported in PMC7211198, “Phase 1b study of a small molecule antagonist of human chemokine (C-C motif) receptor 2 (PF-04136309) in combination with nab-paclitaxel/gemcitabine in first-line treatment of metastatic pancreatic ductal adenocarcinoma” (Investigational New Drugs, 2019).

Experiment: Safety and tolerability (TEAEs, SAEs, DLTs, RP2D) in phase Ib study
Assay type: in vivo, human
Excerpt: Safety assessments included collection of adverse events (AEs), serious AEs (SAEs), vital signs and physical examination, electrocardiogram (12-lead), laboratory assessments, including pregnancy test, and verification of concomitant treatments. A patient was considered as DLT-evaluable if the patient experienced a DLT or if otherwise, in the absence of a DLT, the patient received at least 85% of the planned doses of each study drug in the first 28-day cycle. DLTs were defined as any of the following events occurring in the first cycle of treatment (days 1 through 28) and attributed (i.e., judged to be at least possibly related) to the combination of PF-04136309 plus nab-paclitaxel/gemcitabine, where relationship with the combination could not be ruled out. DLTs were hematologic events of grade 4 neutropenia lasting >5 days; febrile neutropenia; grade ≥ 3 neutropenic infection; grade ≥ 3 thrombocytopenia with grade ≥ 2 bleeding; grade 4 thrombocytopenia; and nonhematologic events of grade 3 toxicities. Exceptions included nausea and vomiting responding to prophylaxis and/or treatment and lasting <7 days from each chemotherapy infusion period; diarrhea responding to treatment and lasting <7 days; grade 3 fatigue lasting <7 days; grade 3 QT interval corrected for heart rate prolongation (>500 msec) persisting after correction of any reversible causes; and/or grade 3 aspartate aminotransferase (AST) and/or alanine aminotransferase (ALT) increase lasting ≤7 days. All grade 4 toxicities and a delay of >2 weeks in receiving the next scheduled cycle due to persistent treatment-related toxicities were considered DLTs. AEs meeting DLT criteria in the dose-expansion phase included grade 3 events of diarrhea, hypokalemia, and dysesthesia and grade 4 hypoxia. […] AEs were graded according to the National Cancer Institute Common Terminology Criteria for Adverse Events, version 4.03.

[1] = 500 mg BID + nab-P/Gem, treatment-related SAE
[2] = 750 mg BID + nab-P/Gem, n = 4, treatment-related TEAE
[3] = 750 mg BID + nab-P/Gem, all-causality SAE
[4] = 750 mg BID + nab-P/Gem, all-causality TEAE

O=C(NCC(=O)N1CC[C@H](N[C@H]2CC[C@@](O)(c3ccc(-c4ncccn4)cn3)CC2)C1)c1cccc(C(F)(F)F)c1 [PF-04136309]
Any SAE, Grade 3 [1]: 3 (17.6) n (%)
Any SAE, Grade 4 [1]: 1 (5.9) n (%)
Any SAE, Grade 5 [1]: 1 (5.9) n (%)
Any SAE, Total [1]: 5 (29.4) n (%)
Hypoxia, Grade 1 [1]: 0 n (%)
Hypoxia, Grade 2 [1]: 0 n (%)
Hypoxia, Grade 3 [1]: 0 n (%)
Hypoxia, Grade 4 [1]: 1 (5.9) n (%)
Hypoxia, Grade 5 [1]: 0 n (%)
Hypoxia, Total [1]: 1 (5.9) n (%)
Pneumonia, Grade 1 [1]: 0 n (%)
Pneumonia, Grade 2 [1]: 0 n (%)
Pneumonia, Grade 3 [1]: 0 n (%)
Pneumonia, Grade 4 [1]: 0 n (%)
Pneumonia, Grade 5 [1]: 1 (5.9) n (%)
Pneumonia, Total [1]: 1 (5.9) n (%)
Pneumonitis, Grade 1 [1]: 0 n (%)
Pneumonitis, Grade 2 [1]: 0 n (%)
Pneumonitis, Grade 3 [1]: 3 (17.6) n (%)
Pneumonitis, Grade 4 [1]: 0 n (%)
Pneumonitis, Grade 5 [1]: 0 n (%)
Pneumonitis, Total [1]: 3 (17.6) n (%)
Pyrexia, Grade 1 [1]: 0 n (%)
Pyrexia, Grade 2 [1]: 1 (5.9) n (%)
Pyrexia, Grade 3 [1]: 0 n (%)
Pyrexia, Grade 4 [1]: 0 n (%)
Pyrexia, Grade 5 [1]: 0 n (%)
Pyrexia, Total [1]: 1 (5.9) n (%)
DLT events (500 mg BID starting dose, three of 17 patients, four DLTs): grade 3 dysesthesia, diarrhea, and hypokalemia and one event of grade 4 hypoxia
DLT (750 mg BID + nab-P/Gem, n = 4, first cycle (days 1 through 28)): 1 (25) n (%)
ALT increase, grade ≥3 [2]: 1 (25.0) n (%)
AST increase, grade ≥3 [2]: 1 (25.0) n (%)
Anemia, grade ≥3 [2]: 0 n (%)
Fatigue, grade ≥3 [2]: 0 n (%)
Leukopenia, grade ≥3 [2]: 3 (75.0) n (%)
Lymphopenia, grade ≥3 [2]: 1 (25.0) n (%)
Neutropenia, grade ≥3 [2]: 3 (75.0) n (%)
Pneumonitis, grade ≥3 [2]: 0 n (%)
Any SAE, Grade 1 [3]: 0 n (%)
Any SAE, Grade 2 [3]: 1 (25.0) n (%)
Any SAE, Grade 3 [3]: 2 (50.0) n (%)
Any SAE, Grade 4 [3]: 0 n (%)
Any SAE, Grade 5 [3]: 0 n (%)
Any SAE, Total [3]: 3 (75.0) n (%)
Appetite decrease, Grade 1 [3]: 0 n (%)
Appetite decrease, Grade 2 [3]: 0 n (%)
Appetite decrease, Grade 3 [3]: 1 (25.0) n (%)
Appetite decrease, Grade 4 [3]: 0 n (%)
Appetite decrease, Grade 5 [3]: 0 n (%)
Appetite decrease, Total [3]: 1 (25.0) n (%)
Cellulitis, Grade 1 [3]: 0 n (%)
Cellulitis, Grade 2 [3]: 0 n (%)
Cellulitis, Grade 3 [3]: 1 (25.0) n (%)
Cellulitis, Grade 4 [3]: 0 n (%)
Cellulitis, Grade 5 [3]: 0 n (%)
Cellulitis, Total [3]: 1 (25.0) n (%)
Cognitive disorder, Grade 1 [3]: 0 n (%)
Cognitive disorder, Grade 2 [3]: 0 n (%)
Cognitive disorder, Grade 3 [3]: 1 (25.0) n (%)
Cognitive disorder, Grade 5 [3]: 0 n (%)
Cognitive disorder, Total [3]: 1 (25.0) n (%)
Gastroesophageal reflux disease, Grade 1 [3]: 0 n (%)
Gastroesophageal reflux disease, Grade 2 [3]: 0 n (%)
Gastroesophageal reflux disease, Grade 3 [3]: 1 (25.0) n (%)
Gastroesophageal reflux disease, Grade 4 [3]: 0 n (%)
Gastroesophageal reflux disease, Grade 5 [3]: 0 n (%)
Gastroesophageal reflux disease, Total [3]: 1 (25.0) n (%)
Rash, Grade 1 [3]: 0 n (%)
Rash, Grade 2 [3]: 1 (25.0) n (%)
Rash, Grade 3 [3]: 0 n (%)
Rash, Grade 4 [3]: 0 n (%)
Rash, Grade 5 [3]: 0 n (%)
Rash, Total [3]: 1 (25.0) n (%)
ALT increase, Grade 1 [4]: 0 n (%)
ALT increase, Grade 2 [4]: 2 (50.0) n (%)
ALT increase, Grade 3 [4]: 1 (25.0) n (%)
ALT increase, Grade 4 [4]: 0 n (%)
ALT increase, Grade 5 [4]: 0 n (%)
ALT increase, Total [4]: 3 (75.0) n (%)
Alopecia, Grade 1 [4]: 2 (50.0) n (%)
Alopecia, Grade 2 [4]: 1 (25.0) n (%)
Alopecia, Grade 3 [4]: 0 n (%)
Alopecia, Grade 4 [4]: 0 n (%)
Alopecia, Grade 5 [4]: 0 n (%)
Alopecia, Total [4]: 3 (75.0) n (%)
Anemia, Grade 1 [4]: 0 n (%)
Anemia, Grade 2 [4]: 2 (50.0) n (%)
Anemia, Grade 3 [4]: 0 n (%)
Anemia, Grade 4 [4]: 0 n (%)
Anemia, Grade 5 [4]: 0 n (%)
Anemia, Total [4]: 2 (50.0) n (%)
Any AE, Grade 1 [4]: 0 n (%)
Any AE, Grade 2 [4]: 0 n (%)
Any AE, Grade 3 [4]: 4 (100.0) n (%)
Any AE, Grade 4 [4]: 0 n (%)
Any AE, Grade 5 [4]: 0 n (%)
Any AE, Total [4]: 4 (100.0) n (%)
Appetite decrease, Grade 1 [4]: 1 (25.0) n (%)
Appetite decrease, Grade 2 [4]: 0 n (%)
Appetite decrease, Grade 3 [4]: 1 (25.0) n (%)
Appetite decrease, Grade 4 [4]: 0 n (%)
Appetite decrease, Grade 5 [4]: 0 n (%)
Appetite decrease, Total [4]: 2 (50.0) n (%)
Cellulitis, Grade 1 [4]: 0 n (%)
Cellulitis, Grade 2 [4]: 1 (25.0) n (%)
Cellulitis, Grade 3 [4]: 1 (25.0) n (%)
Cellulitis, Grade 4 [4]: 0 n (%)
Cellulitis, Grade 5 [4]: 0 n (%)
Cellulitis, Total [4]: 2 (50.0) n (%)
Chills, Grade 1 [4]: 2 (50.0) n (%)
Chills, Grade 2 [4]: 0 n (%)
Chills, Grade 3 [4]: 0 n (%)
Chills, Grade 4 [4]: 0 n (%)
